Results published in patent US10093973B2, “Polymerase compositions and methods” (LIFE TECHNOLOGIES CORPORATION, priority 2009, dated 2018).

Legend:
Assay type in all cases: biochemical
[1] = tested on: AF647-C6-dG6P and Alexa Fluor 546 dye-labeled primer-template duplex; assay: Stopped-flow measurement of tpol (nucleotide incorporation kinetics); parameters: unit not given here; details: tpol = 1/kpol; 7 μM AF647-C6-dG6P, 330 nM polymerase, 100 nM template/primer duplex, 2 mM MnCl2
Description: In this example, the t−1 and tpol values of a Phi-29 polymerase comprising the amino acid sequence of SEQ ID NO: 1 and a modified B103 polymerase comprising the amino acid sequence of SEQ ID NO: 8 (referred to as “mB103 in the table below) and further including amino acid substitutions at various positions were measured using a stopped-flow procedure. The stopped-flow techniques for measuring tpol (1/kpol) followed the techniques described by MP Roettger (2008 Biochemistry 47:9718-9727; M. Bakhtina 2009 Biochemistry 48:3197-320).
Stopped-Flow Measurements of tpol
The template sequence (SEQ ID NO: 44) further included an Alexa Fluor 546 dye moiety bonded to the 5′ position of the template.
The kinetics of nucleotide incorporation by each polymerase was measured in an Applied Photophysics SX20 stopped-flow spectrometer by monitoring changes in fluorescence from the dye-labeled primer-template duplex complexed to enzyme, following the mixing of the enzyme-DNA complex with dye-labeled nucleotides. These dye-labeled nucleotides comprise terminal-phosphate-labeled nucleotides having an alkyl linker with a functional amine group attached to the dye, and have the general structure shown in FIG. 11. This structure includes a sugar bonded to a hexaphosphate chain at the 5′ carbon position, and to a nucleotide base (denoted as “N”). The terminal phosphate group of the hexaphosphate is linked to a 6-carbon linker, and the other end of the 6-carbon linker is attached to a dye moiety (denoted as “dye”), typically through an amide bond. In this example, the particular dye-labeled nucleotide added was a labeled nucleotide hexaphosphate comprising a guanine base at the N (base) position and an Alexa Fluor 647 (AF647) at the dye position, and is referred to herein as “AF647-C6-dG6P”.
The primer and template were annealed to form a dye-labeled primer-template duplex using standard methods. This duplex was preincubated with polymerase. The mixture included 330 nM recombinant DNA polymerase, 100 nM template/primer duplex in buffer (“reaction buffer”) comprising 50 mM Tris-HCl, pH 7.5, 50 mM NaCl, 4 mM DTT, 0.2% BSA, and 2 mM MnCl2. The dye-labeled nucleotide AF647-C6-dG6P was then added to a final concentration of 7 μM, and the resulting fluorescence was monitored over time.
The averaged (5 traces) stopped-flow fluorescence traces (>1.5 ms) were fitted with a double exponential equation (1) to extrapolate the rates of the nucleotide binding and product release, Fluorescence=A1*e^−k1*t+A2*e^−kpol*t+C (equation 1) where A1 and A2 represent corresponding fluorescence amplitudes, C is an offset constant, and k1 and kpol are the observed rate constants for the fast and slow phases of the fluorescence transition, respectively.

[2] = tested on: AF647-C6-dG6P in [enzyme.DNA.nucleotide] ternary complex with dideoxy-primer/template duplex; assay: Stopped-flow measurement of t−1 (nucleotide dissociation from ternary complex); parameters: unit not given here; details: t−1 = 1/k−1; ternary complex with 7 μM AF647-C6-dG6P chased with 50 μM non-labeled nucleotide, 2 mM MnCl2
Description: Stopped-Flow Measurements of t−1
The stopped-flow techniques for measuring t−1 ([…]) followed the techniques described by M. Bakhtina (2009 Biochemistry 48:3197-3208).
The rate of the nucleotide dissociation ([…]) from the ternary complex of [enzyme.DNA.nucleotide] was measured in an Applied Photophysics SX20 stopped-flow spectrometer by monitoring changes […] a duplex Alexa fluor 546 dye-labeled-DNA template following the mixing of the [enzyme.DNA.labeled nucleotide] ternary complex with 50 μM cognate non-labeled deoxynucleoside triphosphate in a buffer containing 50 mM Tris-HCl (pH 7.5), 50 mM NaCl, 4 mM DTT, 0.2% BSA, and 2 mM MnCl2.
The ternary complexes were prepared using: 330 nM polymerase, 100 nM template/primer duplex, and 7 μM terminal phosphate-labeled nucleotides (AF647-C6-dG6P).
The averaged stopped-flow fluorescence traces (>1.5 msec) were fitted with a single exponential equation (2) to extrapolate the rate of the nucleotide dissociation (k−1) from the [enzyme.DNA.nucleotide] ternary complex. Fluorescence=A1*e^−k−1*t+C (equation 2) where A1 represents the corresponding fluorescence amplitude, C is an offset constant, and k−1 and the observed rate constants for the fluorescence transition.

[3] = tested on: hairpin-template, test nanoparticle; assay: Nanoparticle tolerance assay (primer extension with and without test nanoparticle); details: 100 nM polymerase, 100 nM nanoparticle, 23° C.
Description: The nanoparticle tolerance of exemplary modified and reference polymerases was measured and compared. The nucleotide incorporation activity of an exemplary modified polymerase comprising the amino acid sequence of SEQ ID NO: 19 and further comprising the amino acid substitution D175A was measured both in the absence and presence of equimolar amounts of a test nanoparticle. The results were compared to those of an exemplary reference Phi-29 polymerase comprising the amino acid sequence of SEQ ID NO: 20.
Primer extension activity was measured using an assay wherein free pyrophosphate released as a result of extension of a primer:template duplex is detected as a fluorescent product. […] The resulting fluorescence emissions were monitored as a function of time using a plate reader (Molecular Devices, SpectraMax M5). Reactions without nucleotides were also monitored as negative controls. Reactions were monitored for 20 minutes or until the samples reached saturation.
Exemplary results are depicted in FIG. 5, which provides a graph of relative fluorescence observed in each sample (RFU, arbitrary units, Y axis) against time (seconds, X axis). […] Primer extension activity was measured as the average slope of the curve obtained by plotting fluorescence (RFU) vs. time (seconds, X axis) between the zero time point and at 5 minutes. […]

[4] = tested on: ωdN4P and non-extendible AF546 primer:template duplex; assay: Stopped-flow t−1 measurement of Example 7; details: modified versus reference polymerase, ωdN4P 14 μM
Description: In this example, the t−1 values of an exemplary modified polymerase comprising the amino acid of SEQ ID NO: 8 and an exemplary reference polymerase comprising the amino acid sequence of SEQ ID NO: 20 were measured and compared. These kinetic parameters were evaluated using an assay system wherein mixtures comprising a test polymerase and a primer:template duplex were mixed in a stopped-flow assay with nucleotides. To measure t−1, the primer used to form the primer:template duplex was a non-extendible primer including a dideoxynucleotide at its 3′ end, and the template was a synthetic DNA template comprising a donor Alexa Fluor 546 moiety at its 5′ end. […] The ternary complex was mixed with unlabeled nucleotides in a stopped-flow experiment, and the resulting fluorescence was monitored as described below. […]
Preincubated mixtures comprising 200 nM of a primer:templex duplex, 660 nM of test polymerase, and 14 μM of ωdN4P were prepared and then mixed with a solution comprising the unlabeled cognate nucleotide (50 μM) in a stopped-flow apparatus. The fluorescence at both 546 nm and 647 nm was monitored following mixing. The averaged stopped-flow fluorescence traces were fitted with a single exponential function having the form of Equation (1) to extrapolate the t−1 value of the test polymerase.

[5] = tested on: ωdN4P and extendible AF546 primer:template duplex; assay: Stopped-flow tpol measurement of Example 8; details: modified versus reference polymerase, ωdN4P 14 μM
Description: In this example, the tpol values of an exemplary modified polymerase comprising the amino acid of SEQ ID NO: 8 and was measured and compared to the tpol value of an exemplary reference polymerase comprising the amino acid sequence of SEQ ID NO: 20. These kinetic parameters were evaluated using a stopped-flow assay wherein a mixture comprising an extendible dye-labeled primer:template duplex and test polymerase was mixed with a solution comprising terminally-labeled nucleotide tetraphosphates or terminally-labeled nucleotide hexaphosphates. These terminally-labeled nucleotides comprise terminal-phosphate-labeled nucleotides having an alkyl linker with a functional amine group attached to the dye. The fluorescence of the resulting mixture was monitored over time. Unless noted otherwise, all concentrations refer to the initial concentrations prior to mixing. […]
Each primer-template duplex (200 nM) was preincubated with test polymerase (660 nM) and to form an E.DNA binary complex. This binary complex was mixed with the cognate omega-labeled nucleoside tetraphosphate (ωdN4P; 14 μM) in a stopped-flow experiment, and the fluorescence at both 546 nm and 647 nm was monitored following mixing. The averaged stopped-flow fluorescence traces were fitted with the double exponential function of Equation (2) to extrapolate the tpol value of the test polymerase: […]

[6] = tested on: Invitrogen Low Mass ladder; assay: Exonuclease activity assay; details: 2, 4 or 10 μg enzyme, 16 hours at 37° C., visual assessment of ladder bands
Description: An assay comparing the endogenous exonuclease activity of a reference polymerase, T7 DNA polymerase, with the exonuclease activity of a polymerase comprising the amino acid of SEQ ID NO: 7, was performed. Exonuclease activity was measured by incubating 2, 4 or 10 μg of each enzyme sample with 7.5 μL Invitrogen Low Mass ladder, (10068-013) in a 50 μL reaction containing 10 mM Tris, pH 7.5, 50 mM NaCl and 10 mM MgCl2 for 16 hours at 37° C. in an ABI 9700 PCR machine. The samples were resolved via electrophoresis on a 1.2% E-Gel (Life Technologies). The extent of exonuclease activity was estimated by visually assessing the disappearance of the bands of the Low Mass ladder, as compared to negative control reactions, to which water (“W”) or enzyme storage buffer (“SB”) was added instead of purified polymerase).

mB103 + D507H: modified B103 polymerase of SEQ ID NO: 8 with substitution D507H
tpol [1]: 7
t−1 [2]: 16

mB103 + K509Y: modified B103 polymerase of SEQ ID NO: 8 with substitution K509Y
tpol [1]: 10
t−1 [2]: 20

reference Phi-29 polymerase: reference Phi-29 polymerase of Example 5; SEQ ID NO: 20 or SEQ ID NO: 1 with N62D [reference compound]
nanoparticle tolerance [3]: 50%
loss in primer extension activity in the presence of equimolar amounts of the test nanoparticle ([3]; slope zero to 5 minutes): 50%

mB103 + D507G: modified B103 polymerase of SEQ ID NO: 8 with substitution D507G
tpol [1]: 11
t−1 [2]: 13

mB103 + H370R: modified B103 polymerase of SEQ ID NO: 8 with substitution H370R
tpol [1]: 17
t−1 [2]: 43

SEQ ID NO: 1: exemplary polymerase of the bacteriophage Phi-29 [reference compound]
estimated t−1 values [4]: comparable
estimated tpol values [5]: comparable

mB103 + E371Y: modified B103 polymerase of SEQ ID NO: 8 with substitution E371Y
tpol [1]: 11
t−1 [2]: 7

T7 DNA polymerase: reference polymerase, positive control for exonuclease activity [reference compound]
exonuclease activity [6]: comparable levels of exonuclease activity

mB103 + H370Y: modified B103 polymerase of SEQ ID NO: 8 with substitution H370Y
tpol [1]: 15
t−1 [2]: 12

mB103 + E371R: modified B103 polymerase of SEQ ID NO: 8 with substitution E371R
tpol [1]: 11
t−1 [2]: 17

SEQ ID NO: 7: B103 polymerase variant with substitutions F383L and D384N
exonuclease activity [6]: comparable levels of exonuclease activity
